Measurements taken from patent publication US10703737B2, “HDAC inhibitors and uses thereof” (MUSC FOUNDATION FOR RESEARCH DEVELOPMENT, priority 2018, dated 2020).

Experiments:
HDAC1 = HDAC1 (Homo sapiens, UniProt Q13547); test: HDAC1 inhibition IC50; assay type: biochemical
HDAC3 = HDAC3 (Homo sapiens, UniProt O15379); test: HDAC3 inhibition IC50; assay type: biochemical
HDAC2 = HDAC2 (Homo sapiens, UniProt Q92769); test: HDAC2 inhibition IC50; assay type: biochemical
Langendorff hearts = test: Oxyblotting of lysates from Langendorff hearts subjected to I/R; parameters: species or system rat; details: I/R hearts +/- drug
Protocol: (§1) FCCP was injected at point A and […] injected at point B. (B) Measurements of OCR in isolated myocytes subjected to normoxia (blue) or chemical hypoxia. reoxygenation (red) and reperfused with DMSO (red), MS-275 (pink), or LL-66 (peach). For (A) and (B), top panels are representative, bottom panels are the uncoupled rate as a percentage of baseline rate over 4 runs. (C) Oxyblotting of tissue homogenates from Langendorff hearts subjected to I/R+/−LL-66 or MS-275. Representative seahorse data are represented mean +/−SEM, Bar graphs are represented mean +/−S.D. For all experiments, N-4, one way ANOVA with Dunnet post test *p<0.05, **p<0.01.
Since acetylation is known to regulate the activity of mitochondrial enzymes involved in multiple metabolic pathways, the inventors decided to determine if class I HDAC inhibition affects metabolic activity in cardiac myocytes both at baseline and when subjected to simulated hypoxia-reoxygenation (sI/R). […] At the conclusion of the reperfusion period, myocytes were loaded into a Seahorse extracellular flux analyzer and the oxygen consumption rate (OCR) was analyzed at baseline and in response to FCCP (injection A) and […] (injection B).

succinate dehydrogenase = test: SDH activity in tissue lysates from reperfused Langendorff hearts; parameters: species or system rat; details: Langendorff hearts treated at reperfusion
Protocol: (§2) N=3 per group. (B) Treatment of Langendorff hearts with HDAC inhibitors reduce succinate dehydrogenase activity. SDH activity was measured in tissue lysates from reperfused hearts treated with either MS275 or LL-66 at reperfusion. N=4 per group. (C) SDHA activity was measured in mitochondria isolated from HEK2.93 cells expressing WT, K480Q or K480R mutants. N=4
(§3) Therefore, since inhibition of the mitochondrial HDAC1 represses SDH activity and. K538 is hyperacetylated in IR when HDAC1 is inhibited, the inventors first proposed to test whether K538 acetylation represses SDH activity. The inventors have made and expressed the mouse WT, K538Q and K538R point mutants of SDHA in HEK293 cells to determine if acetylation of K538 also represses SDH activity. Contrary to what the inventors had hoped the K538Q and K538R SDHA mutants had no difference in SDHA activity from WT SDHA after normalization for expression (data not shown). […] The K480R has WT activity and K.480Q has suppressed SDHA activity (FIG. 5C) when expressed in HEK293 cells.

[1] = test system: hearts from Sprague-Dawley rats; test: Langendorff isolated heart ischemia-reperfusion model, drug at reperfusion (ex vivo); details: drug during reperfusion; for left ventricular function (dP/dtmax, dP/dtmin, developed pressure, rate pressure product): 30 min ischemia, 60 min reperfusion, vs drug-free control; for infarct area / viable myocardium (TTC staining): end of 60 min reperfusion
Protocol: (B) Graphs represent measurements of left ventricular function after 30 minutes of ischemia and 60 minutes of reperfusion. dP/dtmax indicates the rate of pressure development, dP/dtmin indicates the rate of pressure relaxation, Developed Pressure was calculated as the difference between the systolic and diastolic pressures, Rate Pressure Product was calculated as the developed pressure multiplied by the heart rate. Measurements were taken at the end of reperfusion. (C) TTC staining for infarct area at the end of reperfusion; yellow/white region indicates area of infarction. Infarct areas were measured using imageJ software. All data are represented as mean+/−S.D. N=4, t-test *p,0.05.
FIG. 3 provides data showing (A) Confocal fluorescent images of myocytes loaded with LL-66 and Mitotracker Deep Red FM. (B) LV functional measurements taken at the end of 30 minutes ischemia and 60 minutes of reperfusion, represented as a percentage of baseline pre-ischemia function. dP/dtmax indicates the rate of pressure development, dP/dtmin indicates the rate of pressure relaxation, Developed Pressure was calculated as the difference between the systolic and diastolic pressures, Rate Pressure Product was calculated as the developed pressure multiplied by the heart rate. Measurements were taken at the end of reperfusion. (C) TTC staining for infarct at the end of reperfusion; yellow/white region indicates area of infarction. Infarct areas were measured using image) software. (D) Area of Infarction for each of the groups in (C). N=3 for (A), For B-D, All data are represented as mean+/−S.D. N=4 t-test for panel B, one way ANOVA with bonferroni post-test for panel D *p<0.05.
To test whether selective class I HDAC inhibition can postcondition the heart against […], the inventors isolated hearts from Sprague-Dawley rats and perfused them using a constant pressure Langendorff apparatus. After 15 minutes of equilibration, the inventors subjected the hearts to 30 minutes of ischemia, followed by 60 minutes of reperfusion. The selective class I HDAC inhibitor MS-275 was administered throughout the reperfusion phase and compared to drug-free control hearts (FIG. 1A). In order to measure left ventricular functional performance, a saline-filled balloon was inserted into the left ventricle and attached to a pressure transducer. […] At the conclusion of the 60 minute reperfusion period, hearts were removed from the perfusion column and sliced into 2 mm transverse sections using a tissue slicing matrix. Hearts were then incubated in 2,3,5-triphenyltetrazolium chloride ([…]) in order to determine the amount of infarcted myocardium. […]

SDHA = test: Mass spectrometry of protein acetyl-lysine in I/R hearts treated at reperfusion; parameters: species or system rat; details: for change in SDHA acetylation: I/R hearts, treated at reperfusion, preliminary MS data; for acetylation of SDHA K480: IR with drug treatment
Protocol: as §2
Samples from I/R hearts treated with LL-66, LL-224, MS-275 and vehicle at reperfusion were prepared for mass spectrometry to detect changes in protein acetyl-lysine. […] The inventors previously proposed to first focus on the lysine corresponding to mouse SDHA K538. […] SDH is unique in that it is the only enzyme that participates both in the Krebs cycle and oxidative phosphorylation in mitochondria. Thirteen acetyl-lysine's have been identified on SDHA but there is no acetylation of SDHB^11*, and SDHA is hyper-acetylated in the Sirt3 knockout mouse. […] HEK293 lowers SDH basal activity^13*, SDH K179 is a target of Sirt3.
as §3

[2] = test system: isolated adult rat cardiac myocytes; test: Seahorse oxygen consumption rate (OCR) in myocytes, normoxia or simulated hypoxia-reoxygenation; assay type: cell-based
Protocol: as §1
Since acetylation is known to regulate the activity of mitochondrial enzymes involved in multiple metabolic pathways, the inventors decided to determine if class I HDAC inhibition affects metabolic activity in cardiac myocytes both at baseline and when subjected to simulated hypoxia-reoxygenation (sI/R). For these experiments, isolated adult rat cardiac myocytes were subjected to chemical hypoxia or normoxia control for 90 minutes, then reperfused in the presence of DMSO vehicle, MS-275, or LL-66 for 60 minutes. At the conclusion of the reperfusion period, myocytes were loaded into a Seahorse extracellular flux analyzer and the oxygen consumption rate (OCR) was analyzed at baseline and in response to FCCP (injection A) and […] (injection B).

[3] = at baseline (normoxia), FCCP-uncoupled
[4] = following sI/R (90 min chemical hypoxia, 60 min reperfusion with drug)

HDAC1, sequence (Q13547 whole entry, species assumed): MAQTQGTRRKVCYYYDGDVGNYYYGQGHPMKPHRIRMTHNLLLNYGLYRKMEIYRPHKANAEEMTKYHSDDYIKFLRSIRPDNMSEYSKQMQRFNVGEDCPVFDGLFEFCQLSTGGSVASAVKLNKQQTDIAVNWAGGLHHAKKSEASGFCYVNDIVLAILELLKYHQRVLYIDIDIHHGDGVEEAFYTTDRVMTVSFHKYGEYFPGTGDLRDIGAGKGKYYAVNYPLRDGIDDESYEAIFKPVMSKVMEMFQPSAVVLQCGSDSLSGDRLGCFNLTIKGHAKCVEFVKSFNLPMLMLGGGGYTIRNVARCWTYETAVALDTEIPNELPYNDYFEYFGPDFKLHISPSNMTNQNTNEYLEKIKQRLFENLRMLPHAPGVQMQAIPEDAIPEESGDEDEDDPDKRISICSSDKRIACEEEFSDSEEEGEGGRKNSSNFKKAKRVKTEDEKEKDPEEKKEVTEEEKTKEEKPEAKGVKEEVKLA
HDAC3, sequence (O15379 whole entry, species assumed): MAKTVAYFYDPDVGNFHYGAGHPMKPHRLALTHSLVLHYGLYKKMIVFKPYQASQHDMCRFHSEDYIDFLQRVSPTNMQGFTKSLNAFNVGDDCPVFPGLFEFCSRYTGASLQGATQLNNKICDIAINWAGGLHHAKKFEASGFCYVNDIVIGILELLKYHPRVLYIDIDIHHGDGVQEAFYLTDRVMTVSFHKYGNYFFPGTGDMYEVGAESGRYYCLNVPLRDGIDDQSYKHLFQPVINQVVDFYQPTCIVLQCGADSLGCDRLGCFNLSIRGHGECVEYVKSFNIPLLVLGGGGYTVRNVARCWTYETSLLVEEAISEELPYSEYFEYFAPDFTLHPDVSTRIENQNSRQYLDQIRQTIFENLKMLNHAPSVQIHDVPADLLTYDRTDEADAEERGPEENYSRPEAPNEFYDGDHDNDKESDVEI
HDAC3, sequence (Q9Y618 395-489 partner limits assumed, species assumed): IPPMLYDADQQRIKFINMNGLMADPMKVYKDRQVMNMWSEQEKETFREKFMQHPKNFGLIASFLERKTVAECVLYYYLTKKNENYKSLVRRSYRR
HDAC2, sequence (Q92769 whole entry, species assumed): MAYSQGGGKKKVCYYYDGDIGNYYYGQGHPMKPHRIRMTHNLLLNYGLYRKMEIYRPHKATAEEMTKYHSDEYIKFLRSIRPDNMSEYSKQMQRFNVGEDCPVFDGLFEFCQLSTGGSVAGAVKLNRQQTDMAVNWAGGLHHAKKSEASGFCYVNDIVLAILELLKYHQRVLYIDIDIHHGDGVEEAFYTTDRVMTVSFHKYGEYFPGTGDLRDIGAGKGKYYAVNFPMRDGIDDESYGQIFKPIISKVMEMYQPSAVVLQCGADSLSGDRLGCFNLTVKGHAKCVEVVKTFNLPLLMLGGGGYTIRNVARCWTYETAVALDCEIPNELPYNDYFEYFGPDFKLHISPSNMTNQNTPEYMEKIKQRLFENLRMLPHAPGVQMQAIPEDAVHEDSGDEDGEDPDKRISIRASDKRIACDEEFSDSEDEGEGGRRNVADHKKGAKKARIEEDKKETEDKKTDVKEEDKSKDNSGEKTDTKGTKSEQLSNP

Row | Compound | IC50 (HDAC1) [µM] | IC50 (HDAC3) [µM] | IC50 (HDAC2) [µM] | oxidative damage (oxyblotting) (Langendorff hearts) | SDH activity (succinate dehydrogenase) | left ventricular function (dP/dtmax, dP/dtmin, developed pressure, rate pressure product) [1] | infarct area / viable myocardium (TTC staining) [1] | change in SDHA acetylation (SDHA) | acetylation of SDHA K480 (SDHA) | acetylation of lysine corresponding to mouse SDHA K538 (SDHA; IR with drug vs IR with vehicle) | maximal uncoupled OCR [2, 3] | maximal uncoupled OCR [2, 4] | change in acetylation of rat SDHA lysine corresponding to mouse K179 (SDHA; IR vs IR+drug)
1 | N=c1ccc2c(-c3ccccc3C(=O)NCCCCCCC(=O)Nc3ccccc3N)c3ccc(N)cc3oc-2c1 [LL45, 2-(7-(2-(6-amino-3iminio-3H-xanthen-9-yl)benzamido)heptanamido) benzenaminium 2,2,2-trifluoroacetate] | 1.95 | 0.055 | 2.46 | – | – | – | – | – | – | – | – | – | –
2 | N=c1ccc2c(-c3ccccc3C(=O)NCCCCCCCC(=O)Nc3ccccc3N)c3ccc(N)cc3oc-2c1 [LL130, 2-(8-(2-(6-amino-3-iminio-3H-xanthen-9-yl)benzamido)octanamido) benzenaminium 2,2,2-trifluoroacetate] | 4.73 | 0.152 | 5.17 | – | – | – | – | – | – | – | – | – | –
3 | N=c1ccc2c(-c3ccccc3C(=O)NCc3ccc(C(=O)Nc4ccccc4N)cc3)c3ccc(N)cc3oc-2c1 [LL66, 2-(4-((2-(6-amino-3-iminio-3H-xanthen-9-yl)benzamido)methyl)benzamido) benzenaminium 2,2,2-trifluoroacetate] | 4.02 | 0.355 | 3.48 | reduction of oxidative damage | significantly reduced | same magnitude of LV functional recovery from injury as the non-targeted class I HDAC inhibitor MS-275 | rescued viable myocardium to the same extent as MS-275 | significant changes in acetylation | significantly hyperacetylated | significantly hyperacetylated | significantly decreased | significantly decreased | –
4 | CCCNNC(=O)c1ccc(CNC(=O)c2ccccc2-c2c3ccc(=N)cc-3oc3cc(N)ccc23)cc1 [LL65, 6-amino-9-(2-((4-(2-propylhydrazine-1-carbonyl)benzyl)carbamoyl)phenyl)-3H-xanthen-3-iminium 2,2,2-trifluoroacetate] | 0.276 | 0.036 | 0.849 | – | – | – | – | – | – | – | – | – | –
5 | N=c1ccc2c(-c3ccccc3C(=O)NCCCCCC(=O)Nc3ccccc3N)c3ccc(N)cc3oc-2c1 [LL38, 2-(6-(2-(6-amino-3-iminio-3H-xanthen-9-yl)benzamido)hexanamido) benzenaminium 2,2,2-trifluoroacetate] | 1.26 | 0.18 | 0.49 | – | – | – | – | – | – | – | – | – | –
6 | CCCNNC(=O)CCCCCCNC(=O)c1ccccc1-c1c2ccc(=N)cc-2oc2cc(N)ccc12 [LL142, 6-amino-9-(2-((7-oxo-7-(2-propylhydrazinyl)heptyl)carbamoyl)phenyl)-3H-xanthen-3-iminium 2,2,2-trifluoroacetate] | 0.111 | 0.006 | 0.46 | – | – | – | – | – | – | – | – | – | –
7 | CCCNNC(=O)c1ccc(CNC(=O)CNC(=O)c2ccccc2-c2c3ccc(=N)cc-3oc3cc(N)ccc23)cc1 [LL115, 6-amino-9-(2-((2-oxo-2-((4-(2-propylhydrazine-1-carbonyl)benzyl)amino)ethyl)carbamoyl)phenyl)-3H-xanthen-3-iminium 2,2,2-trifluoroacetate] | 0.041 | 0.005 | 0.209 | – | – | – | – | – | – | – | – | – | –
8 | CCCNNC(=O)c1ccc(NC(=O)CNC(=O)c2ccccc2-c2c3ccc(=N)cc-3oc3cc(N)ccc23)cc1 [LL162, 6-amino-9-(2-((2-oxo-2-((4-(2-propylhydrazine-1-carbonyl)phenyl)amino)ethyl)carbamoyl)phenyl)-3H-xanthen-3-iminium 2,2,2-trifluoroacetate] | 0.124 | 0.007 | 0.468 | – | – | – | – | – | – | – | – | – | –
9 | Nc1ccccc1NC(=O)c1ccc(CNC(=O)OCc2cccnc2)cc1 [MS-275, reference compound] | – | – | – | reduction of oxidative damage | significantly reduced | significant preservation of multiple parameters of ventricular function | significantly reduced infarct area | significant changes in acetylation | significantly hyperacetylated | – | significantly decreased | significantly decreased | not significant
